Results taken from ChEMBL document CHEMBL1909046, “DrugMatrix in vitro pharmacology data”.
Where a SMILES comes first, the peptide text is derived from it. Bridges are numbered along the chain shown (N, C = ends). [ ]: non-standard residue; d: D form. The star is where a group is joined. Threoninol(2S,3R) = C[C@@H](O)[C@H](CO)N*

Assays:
[1] = target: T1, Neuropeptide Y receptor type 1 (Homo sapiens, UniProt P25929); type: cell membranes, Membrane; conditions: sk-n-mc; further: in other assays of this panel Not Active means under 50% inhibition at 10 µM
T1 sequence (P25929 whole entry): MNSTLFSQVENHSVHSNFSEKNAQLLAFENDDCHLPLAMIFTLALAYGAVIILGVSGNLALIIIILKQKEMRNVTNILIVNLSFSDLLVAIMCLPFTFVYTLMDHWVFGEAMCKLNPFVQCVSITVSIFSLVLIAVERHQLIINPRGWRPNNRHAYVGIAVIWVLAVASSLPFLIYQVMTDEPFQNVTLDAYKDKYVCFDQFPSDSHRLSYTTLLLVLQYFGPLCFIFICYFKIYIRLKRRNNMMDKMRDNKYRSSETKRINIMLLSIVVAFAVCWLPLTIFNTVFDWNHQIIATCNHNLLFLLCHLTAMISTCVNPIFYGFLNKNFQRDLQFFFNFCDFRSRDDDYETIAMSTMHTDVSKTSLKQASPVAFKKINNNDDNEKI

[2] = target: 5-hydroxytryptamine receptor 6 (Homo sapiens, UniProt P50406); type: cell membranes, HeLa, Membrane; conditions: hela; further: in other assays of this panel Not Active means under 50% inhibition at 10 µM
Sequence of 5-hydroxytryptamine receptor 6 (P50406 whole entry): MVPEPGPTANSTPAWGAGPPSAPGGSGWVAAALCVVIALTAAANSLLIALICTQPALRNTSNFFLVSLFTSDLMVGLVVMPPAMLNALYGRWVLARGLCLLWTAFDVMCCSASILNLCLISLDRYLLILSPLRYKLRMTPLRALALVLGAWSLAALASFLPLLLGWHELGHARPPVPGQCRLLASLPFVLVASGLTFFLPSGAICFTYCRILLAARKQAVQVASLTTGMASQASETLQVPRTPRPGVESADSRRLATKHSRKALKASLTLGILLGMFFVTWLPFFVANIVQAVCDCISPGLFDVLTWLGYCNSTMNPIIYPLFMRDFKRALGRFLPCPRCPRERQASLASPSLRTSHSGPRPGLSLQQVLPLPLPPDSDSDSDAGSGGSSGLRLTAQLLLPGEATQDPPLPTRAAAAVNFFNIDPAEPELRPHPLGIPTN

[3] = DRUGMATRIX: ATPase, Na+/K+ enzyme inhibition (substrate: ATP); type: tissue-based, Sus scrofa, Heart; conditions: Not Active = under 50% inhibition at 10 µM
Melanocortin receptor 5 = Melanocortin receptor 5 (Homo sapiens, UniProt P33032); type: cell membranes, Membrane; conditions: hek293; further: in other assays of this panel Not Active means under 50% inhibition at 10 µM
Sequence of Melanocortin receptor 5 (P33032 whole entry): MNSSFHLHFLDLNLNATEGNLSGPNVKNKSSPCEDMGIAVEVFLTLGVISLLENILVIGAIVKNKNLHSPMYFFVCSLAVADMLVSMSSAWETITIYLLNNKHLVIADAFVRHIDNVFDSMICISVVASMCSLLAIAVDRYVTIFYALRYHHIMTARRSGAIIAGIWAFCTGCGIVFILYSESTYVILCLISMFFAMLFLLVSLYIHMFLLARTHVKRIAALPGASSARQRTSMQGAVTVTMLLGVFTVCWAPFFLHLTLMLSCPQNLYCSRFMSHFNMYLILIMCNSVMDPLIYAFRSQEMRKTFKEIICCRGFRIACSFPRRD

Cytochrome P450 3A4 = Cytochrome P450 3A4 (Homo sapiens, UniProt P08684); conditions: bti-tn-5b1-4; further: in other assays of this panel Not Active means under 50% inhibition at 10 µM
Sequence of Cytochrome P450 3A4 (P08684 whole entry): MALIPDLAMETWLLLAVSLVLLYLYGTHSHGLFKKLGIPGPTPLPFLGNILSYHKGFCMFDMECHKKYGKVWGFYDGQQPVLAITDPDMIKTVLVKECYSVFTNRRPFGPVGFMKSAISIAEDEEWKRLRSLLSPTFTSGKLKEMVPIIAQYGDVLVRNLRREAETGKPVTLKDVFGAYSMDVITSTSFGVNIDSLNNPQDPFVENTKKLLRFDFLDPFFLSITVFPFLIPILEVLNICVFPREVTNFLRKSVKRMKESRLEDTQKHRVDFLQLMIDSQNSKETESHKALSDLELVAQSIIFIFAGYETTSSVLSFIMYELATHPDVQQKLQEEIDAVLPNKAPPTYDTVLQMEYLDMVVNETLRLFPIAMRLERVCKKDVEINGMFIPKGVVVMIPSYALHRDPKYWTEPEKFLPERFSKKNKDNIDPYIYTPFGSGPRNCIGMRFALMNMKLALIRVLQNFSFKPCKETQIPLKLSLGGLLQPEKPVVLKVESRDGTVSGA

Estrogen receptor = target: T2, Estrogen receptor (Homo sapiens, UniProt P03372); conditions: sf9; further: in other assays of this panel Not Active means under 50% inhibition at 10 µM
T2 sequence (P03372 whole entry): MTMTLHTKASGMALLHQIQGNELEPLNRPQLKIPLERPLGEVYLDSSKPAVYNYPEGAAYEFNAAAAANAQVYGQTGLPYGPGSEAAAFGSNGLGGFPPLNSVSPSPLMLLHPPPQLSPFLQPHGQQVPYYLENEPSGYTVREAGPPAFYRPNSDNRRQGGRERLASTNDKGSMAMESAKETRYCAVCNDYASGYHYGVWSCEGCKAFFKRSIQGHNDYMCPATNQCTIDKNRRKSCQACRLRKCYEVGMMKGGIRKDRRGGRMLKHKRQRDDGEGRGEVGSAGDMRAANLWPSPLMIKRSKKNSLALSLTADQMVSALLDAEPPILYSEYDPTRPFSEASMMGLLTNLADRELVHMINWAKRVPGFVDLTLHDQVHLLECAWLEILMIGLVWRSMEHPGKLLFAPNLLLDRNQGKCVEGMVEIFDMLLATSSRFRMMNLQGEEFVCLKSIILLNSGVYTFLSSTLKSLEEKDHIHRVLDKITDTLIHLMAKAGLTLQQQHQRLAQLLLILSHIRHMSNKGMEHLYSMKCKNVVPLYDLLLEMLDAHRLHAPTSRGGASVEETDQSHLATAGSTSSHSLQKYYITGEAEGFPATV

[4] = target: Sodium-dependent dopamine transporter (Homo sapiens, UniProt Q01959); test: DRUGMATRIX: Dopamine Transporter radioligand binding (ligand: [125I] RTI-55); type: cell membranes, CHO-K1, Membrane; conditions: cho-k1; Not Active = under 50% inhibition at 10 µM
Sequence of Sodium-dependent dopamine transporter (Q01959 whole entry): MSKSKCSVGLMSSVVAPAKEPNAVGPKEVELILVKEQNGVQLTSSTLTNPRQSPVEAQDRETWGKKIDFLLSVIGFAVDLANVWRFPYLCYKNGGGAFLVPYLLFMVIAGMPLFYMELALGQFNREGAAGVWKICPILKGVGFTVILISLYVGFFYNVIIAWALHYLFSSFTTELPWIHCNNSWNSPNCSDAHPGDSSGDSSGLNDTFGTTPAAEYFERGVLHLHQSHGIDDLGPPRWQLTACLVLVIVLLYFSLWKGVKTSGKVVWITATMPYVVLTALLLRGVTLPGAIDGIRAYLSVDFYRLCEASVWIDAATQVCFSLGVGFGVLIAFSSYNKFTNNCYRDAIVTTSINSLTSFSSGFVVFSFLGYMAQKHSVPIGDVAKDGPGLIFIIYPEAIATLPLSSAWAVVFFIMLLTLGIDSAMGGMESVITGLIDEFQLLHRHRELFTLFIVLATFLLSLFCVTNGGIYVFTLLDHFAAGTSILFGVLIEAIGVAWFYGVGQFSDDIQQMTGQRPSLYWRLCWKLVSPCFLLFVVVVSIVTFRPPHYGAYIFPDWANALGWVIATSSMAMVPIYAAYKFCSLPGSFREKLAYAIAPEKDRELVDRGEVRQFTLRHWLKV

COc1ccccc1C(=O)N1CCC(Cc2ccccc2)CC1
Not Active: IC50 [1] | IC50 [2] | IC50 [3] | Ki [3] | IC50 (Melanocortin receptor 5) | IC50 (Cytochrome P450 3A4) | Ki (Cytochrome P450 3A4) | IC50 (Estrogen receptor) | IC50 [4]

Cc1ccccc1C(=O)N1CCC(Cc2ccccc2)CC1
Not Active: IC50 [1] | IC50 [2] | IC50 [3] | Ki [3] | IC50 (Melanocortin receptor 5) | IC50 (Cytochrome P450 3A4) | Ki (Cytochrome P450 3A4) | IC50 (Estrogen receptor) | IC50 [4]

N=C(Nc1ccccc1)Nc1ccccc1
Not Active: IC50 [1] | IC50 [2] | IC50 [3] | Ki [3] | IC50 (Melanocortin receptor 5) | IC50 (Cytochrome P450 3A4) | Ki (Cytochrome P450 3A4) | IC50 (Estrogen receptor) | IC50 [4]

C[C@@H](O)[C@H](CO)NC(=O)[C@@H]1CSSC[C@H](NC(=O)[C@H](N)Cc2ccccc2)C(=O)N[C@@H](Cc2ccccc2)C(=O)N[C@H](Cc2c[nH]c3ccccc23)C(=O)N[C@@H](CCCCN)C(=O)N[C@@H]([C@@H](C)O)C(=O)N1 (H-[dF]CF[dW]KTC-{Threoninol(2S,3R)}; disulfide 2-7)
Not Active: IC50 [1] | IC50 [2] | IC50 [3] | Ki [3] | IC50 (Melanocortin receptor 5) | IC50 (Cytochrome P450 3A4) | Ki (Cytochrome P450 3A4) | IC50 (Estrogen receptor) | IC50 [4]

S=C=Nc1cccc2ccccc12 [1-NAPHTHYLISOTHIOCYANATE]
Not Active: IC50 [1] | IC50 [2] | IC50 [3] | Ki [3] | IC50 (Melanocortin receptor 5) | IC50 (Cytochrome P450 3A4) | Ki (Cytochrome P450 3A4) | IC50 (Estrogen receptor) | IC50 [4]

C[C@](O)(CS(=O)(=O)c1ccc(F)cc1)C(=O)Nc1ccc(C#N)c(C(F)(F)F)c1 [(R)-BICALUTAMIDE]
Not Active: IC50 [1] | IC50 [2] | IC50 [3] | Ki [3] | IC50 (Melanocortin receptor 5) | IC50 (Cytochrome P450 3A4) | Ki (Cytochrome P450 3A4) | IC50 (Estrogen receptor) | IC50 [4]

CCCC(=O)Nc1ccc(OCC(O)CNC(C)C)c(C(C)=O)c1 (centres undefined) [ACEBUTOLOL]
Not Active: IC50 [1] | IC50 [2] | IC50 [3] | Ki [3] | IC50 (Melanocortin receptor 5) | IC50 (Cytochrome P450 3A4) | Ki (Cytochrome P450 3A4) | IC50 (Estrogen receptor) | IC50 [4]

COc1cc2c(c3oc(=O)c4c(c13)CCC4=O)[C@@H]1C=CO[C@@H]1O2 [AFLATOXIN]
Not Active: IC50 [1] | Ki [1] | IC50 [2] | Ki [2] | IC50 [3] | Ki [3] | IC50 (Melanocortin receptor 5) | Ki (Melanocortin receptor 5) | IC50 (Cytochrome P450 3A4) | Ki (Cytochrome P450 3A4) | IC50 (Estrogen receptor) | Ki (Estrogen receptor) | IC50 [4] | Ki [4]

N=C(N)NC(=O)c1nc(Cl)c(N)nc1N [AMILORIDE]
Not Active: IC50 [1] | IC50 [2] | IC50 [3] | Ki [3] | IC50 (Melanocortin receptor 5) | IC50 (Cytochrome P450 3A4) | Ki (Cytochrome P450 3A4) | IC50 (Estrogen receptor) | IC50 [4]

Cc1cc(=O)n(-c2ccccc2)n1C [ANTIPYRINE]
Not Active: IC50 [1] | IC50 [2] | IC50 [3] | Ki [3] | IC50 (Melanocortin receptor 5) | IC50 (Cytochrome P450 3A4) | Ki (Cytochrome P450 3A4) | IC50 (Estrogen receptor) | IC50 [4]

CN1C(=O)COc2c(C(=O)NC3CN4CCC3CC4)cc(Cl)cc21 (centres undefined) [AZASETRON]
Not Active: IC50 [1] | IC50 [2] | IC50 [3] | Ki [3] | IC50 (Melanocortin receptor 5) | IC50 (Cytochrome P450 3A4) | Ki (Cytochrome P450 3A4) | IC50 (Estrogen receptor) | IC50 [4]

C[C@H]1C[C@H]2[C@@H]3CCC4=CC(=O)C=C[C@]4(C)[C@@]3(Cl)[C@@H](O)C[C@]2(C)[C@@]1(O)C(=O)CO [BECLOMETHASONE]
Not Active: IC50 [1] | IC50 [2] | IC50 [3] | Ki [3] | IC50 (Melanocortin receptor 5) | IC50 (Cytochrome P450 3A4) | Ki (Cytochrome P450 3A4) | IC50 (Estrogen receptor) | IC50 [4]

Nc1c(CC(=O)O)cccc1C(=O)c1ccc(Br)cc1 [BROMFENAC]
Not Active: IC50 [1] | IC50 [2] | IC50 [3] | Ki [3] | IC50 (Melanocortin receptor 5) | IC50 (Cytochrome P450 3A4) | Ki (Cytochrome P450 3A4) | IC50 (Estrogen receptor) | IC50 [4]

CCCCN1CCCCC1C(=O)Nc1c(C)cccc1C.Cl (centres undefined) [BUPIVACAINE HYDROCHLORIDE]
Not Active: IC50 [1] | IC50 [2] | IC50 [3] | Ki [3] | IC50 (Melanocortin receptor 5) | IC50 (Cytochrome P450 3A4) | Ki (Cytochrome P450 3A4) | IC50 (Estrogen receptor) | IC50 [4]

C[C@@]12C(=O)OC(=O)[C@]1(C)[C@H]1CC[C@@H]2O1 [CANTHARIDIN]
Not Active: IC50 [1] | IC50 [2] | IC50 [3] | Ki [3] | IC50 (Melanocortin receptor 5) | IC50 (Cytochrome P450 3A4) | Ki (Cytochrome P450 3A4) | IC50 (Estrogen receptor) | IC50 [4]

C=C1CC[C@H](O)C/C1=C/C=C1\CCC[C@]2(C)[C@@H]([C@H](C)CCCC(C)C)CC[C@@H]12 [CHOLECALCIFEROL]
Not Active: IC50 [1] | IC50 [2] | IC50 [3] | Ki [3] | IC50 (Melanocortin receptor 5) | IC50 (Cytochrome P450 3A4) | Ki (Cytochrome P450 3A4) | IC50 (Estrogen receptor) | IC50 [4]

C[N+](C)(C)CCO.[Cl-] [CHOLINE CHLORIDE]
Not Active: IC50 [1] | IC50 [2] | IC50 [3] | Ki [3] | IC50 (Melanocortin receptor 5) | IC50 (Cytochrome P450 3A4) | Ki (Cytochrome P450 3A4) | IC50 (Estrogen receptor) | IC50 [4]

CC(=O)OCC(=O)[C@@]1(O)CC[C@H]2[C@@H]3CCC4=CC(=O)CC[C@]4(C)[C@H]3C(=O)C[C@@]21C [CORTISONE ACETATE]
Not Active: IC50 [1] | IC50 [2] | IC50 [3] | Ki [3] | IC50 (Melanocortin receptor 5) | IC50 (Cytochrome P450 3A4) | Ki (Cytochrome P450 3A4) | IC50 (Estrogen receptor) | IC50 [4]

O=c1ccc2ccccc2o1 [COUMARIN]
Not Active: IC50 [1] | IC50 [2] | IC50 [3] | Ki [3] | IC50 (Melanocortin receptor 5) | IC50 (Cytochrome P450 3A4) | Ki (Cytochrome P450 3A4) | IC50 (Estrogen receptor) | IC50 [4]

CN(C)/N=N/c1[nH]cnc1C(N)=O [DACARBAZINE]
Not Active: IC50 [1] | IC50 [2] | IC50 [3] | Ki [3] | IC50 (Melanocortin receptor 5) | IC50 (Cytochrome P450 3A4) | Ki (Cytochrome P450 3A4) | IC50 (Estrogen receptor) | IC50 [4]

COc1ccc2c(c1)[C@]13CCCC[C@@H]1[C@H](C2)N(C)CC3 [DEXTROMETHORPHAN]
Not Active: IC50 [1] | IC50 [2] | IC50 [3] | Ki [3] | IC50 (Melanocortin receptor 5) | IC50 (Cytochrome P450 3A4) | Ki (Cytochrome P450 3A4) | IC50 (Estrogen receptor) | IC50 [4]

COP(=O)(OC)OC=C(Cl)Cl [DICHLORVOS]
Not Active: IC50 [1] | IC50 [2] | IC50 [3] | Ki [3] | IC50 (Melanocortin receptor 5) | IC50 (Cytochrome P450 3A4) | Ki (Cytochrome P450 3A4) | IC50 (Estrogen receptor) | IC50 [4]

O=C(O)Cc1ccccc1Nc1c(Cl)cccc1Cl [DICLOFENAC]
Not Active: IC50 [1] | IC50 [2] | IC50 [3] | Ki [3] | IC50 (Melanocortin receptor 5) | IC50 (Cytochrome P450 3A4) | Ki (Cytochrome P450 3A4) | IC50 (Estrogen receptor) | IC50 [4]

CCC1=C[C@@H]2CN(C1)Cc1c([nH]c3ccccc13)[C@@](C(=O)OC)(c1cc3c(cc1OC)N(C)[C@H]1[C@@](O)(C(=O)OC)[C@H](OC(C)=O)[C@]4(CC)C=CCN5CC[C@]31[C@@H]54)C2 [VINORELBINE]
Not Active: IC50 [1] | IC50 [2] | IC50 [3] | Ki [3] | IC50 (Melanocortin receptor 5) | IC50 (Estrogen receptor) | IC50 [4]
